Experimental data reported in patent US20160031935A1, “SMALL MOLECULE MODULATORS OF PCSK9 AND METHODS OF USE THEREOF” (ADAERATA, LIMITED PARTNERSHIP, priority 2013, published 2016).

Tests used:
cell surface LDLR = experiment: FACS assay of LDLR at the HepG2 cell surface; format: cell-based, human; conditions: 10 μM, 24 h; LDLR positive HepG2 cells
Experimental: The ability of PCSK9 inhibitory compounds to prevent the activity of PCSK9 on LDLR at the cell surface was also measured by using flow cytometry analyses as described in Benjannet S. et al. J. Biol. Chem. 285: 40965-40978, 2010. The level of LDLR at the HepG2 cell surface was measured by using anti human LDLR antibody (1:100, mAb-C7, Santa Cruz Biotechnology) and a secondary Alexa Fluor 647 donkey anti-mouse (Molecular Probes) antibody. Viable cells (PI-negative) were then analyzed by FACS for both PI and Alexa Fluor 647 using the FACS BD LSR (BD Biosciences). Cell surface LDLR was reported relative to control (untreated cells). The inhibition of the PCSK9 function in these assays was detected by an increased number of positive cells which correlated with an increased expression of LDLR at the cell surface.
More particularly, Human hepatoblastoma HepG2 cells (4×10^5 cells/well) were seeded in 12 well plates (Greiner BioOne) in complete media and cultured for 20 hours, at 37° C., followed by a 1 hour wash in serum free media at 37° C. Next, the wash media was removed and the cells were incubated overnight (24 hours) with 0.9 ml/well incubation media containing compounds at 10 uM or DMSO control (0.4% final). After one rinse with buffer A followed by another rinse with EDTA solution (2.5 mM EDTA-2Na), the cells were detached by incubation in the presence of fresh EDTA solution (1 ml) at 37° C. for 20 minutes. All the steps following cell detachment were conducted on ice or 4° C. To terminate the detachment, the cells were transferred in a 15 ml tube containing 3 ml of buffer A and centrifuged immediately for 5 minutes at 900 rpm (100 g) (4° C.). The cells were then resuspended in 500 ul buffer A together with 1:250 human LDLR antibody and incubated on ice for 10 minutes. Cells were washed once with 5 ml buffer A, centrifuged for 5 minutes, resuspended in 500 ul buffer A containing 1:500 Alexa Fluor 647 secondary antibody and incubated on ice for 5 min. After the staining, cells were washed once with 5 ml buffer A, centrifuged for 5 minutes and resuspended in 300 ul buffer A containing 1.67 ug/ml propidium iodide. A fixed number (2,000 cells) of viable cells (propidium iodide negative) were then analyzed by FACS for Alexa Fluor 647 (cell surface LDLR) using a FACS-CyAn ADP flow cytometer (Beckman Coulter (DAKO)) and Summit software (Summit Software Inc.).
Human HepG2 cell line: ATCC, HB-8065 Seeding media: complete media—EMEM (high glucose+sodium pyruvate) (Wisent)+10% FBS Wash media: serum free media—EMEM (high glucose+sodium pyruvate) (Wisent) Incubation media with compounds: EMEM (high glucose+sodium pyruvate) (Wisent)+0.07% BSA (Sigma-Aldrich) BufferA: 1×D-PBS without calcium and magnesium (Wisent 311-425-CL)+0.5% BSA (Sigma A7409-50ml)+[…] Glucose (Wisent 609-036-EL). Primary antibody: human LDLR antibody, monoclonal Mouse IgG1 clone #472413 (MAB2148, R&D Systems) Secondary antibody: Alexa Fluor® 647 goat anti-mouse IgG (H+L)*2 mg/mL*(A21235, Molecular Probes) Propidium iodide: 1 mg/ml solution (P4864, Sigma)

[1] = system: cell surface LDLR activity; experiment: Dil-LDL uptake assay in HepG2 naïve cells; format: cell-based, human; conditions: for activity at 10 µM: Homo sapiens, 24 h, HepG2 cells, read-out: Dil-LDL uptake (% DMSO Cnt)
Experimental: HepG2 naive cells and HEK293 naive cells were plated in 96-well plates (CellBind black plate with clear bottom (Corning; Cat #3340)) at a density of 25,000 cells/well, in complete media (DMEM high glucose (+sodium pyruvate for HepG2) (Wisent)+10% FBS). After 20 hours, cells were washed for 30 min with serum free DMEM media (100 μl/well), the wash media was removed and replaced with 100 μl/well of incubation media (DMEM high glucose (+sodium pyruvate for HepG2) (Wisent)+0.07% BSA (Sigma-Aldrich)) containing compound at various concentrations ([…]) or DMSO control (0.4% final). Each condition was prepared in triplicates. After 6 hours incubation at 37° C., Dil-LDL (Biomedical Technologies (Cat #BT-904)) was added to the cell media (5 μl) at 5 μg/ml final concentration, and cells returned to tissue culture incubator for another 18 hours (a total of 24 hours incubation with the compounds). After 2 washes (200 μl/well) with ice-cold D-PBS (Wisent) and aspiration of the final wash, plates were scanned (bottom read) on a SpectraMax GeminiEM™ plate reader (Molecular Devices). For each well, raw Dil-LDL uptake was measured as the average fluorescence intensity (RFU) (ex: 520 nm/em: 575 nm, cutoff: 550 nm) of 9 readings in 3 different points in the well. Dil-LDL uptake in each well was corrected for total number of cells by performing a CyQuant™ cell assay (Invitrogen; Cat #C7026). Namely, after recording the Dil fluorescence, the plate was frozen overnight at −80° C. The next day, the plates were thawed at room temperature, the cells lysed according to the manufacturer's protocol, and the number of cells/well was determined by measuring the fluorescence (RFU) of the CyQuant green fluorescent dye bound to the cellular nucleic acids (ex: 485 nm/em: 538 nm, cutoff: 515 nm). For each condition, Dil-RFU was divided by CyQuant-RFU. Corrected dil-LDL uptake is reported as % DMSO control and was obtained from triplicate wells.
The PCSK9 inhibitory compounds were also characterized using a Dil-LDL fluorescent uptake assay as described in Poirier et al., J. Biol. Chem. 284: 28856-28864, 2009. The method entails the fluorescence measurement of the Dil-LDL cellular incorporation via LDLR internalization (a measurement of cell surface LDLR activity) in human hepatocyte derived HuH7 or HepG2 cell lines, or human embryonic HEK293 cells, in the presence or absence of compounds.
HepG2 naïve cells and HEK293 naïve cells were plated in 96-well plates (CellBind™ black plate with clear bottom (Corning; Cat #3340)). At 20 h post-seeding, cells were incubated in the absence (DMSO or negative control) or in the presence of different concentrations of compounds. Each condition was prepared in triplicates. After 6 hours incubation, Dil-LDL (Biomedical Technologies (Cat #BT-904)) was added to the cell media, and cells returned to tissue culture incubator for another 18 hours. Plates were scanned (bottom read) on a SpectraMax GeminiEM™ plate reader (Molecular Devices). For each well, raw Dil-LDL uptake was measured as the average fluorescence intensity (RFU) (ex: 520 nm/em: 575 nm, cutoff: 550 nm) of 9 readings in 3 different points in the well. Dil-LDL uptake in each well was corrected for total number of cells by performing a CyQuant™ cell assay (Invitrogen, Cat #C7026) according to the manufacturer's instructions. Corrected Dil-LDL uptake is reported as a % of DMSO control and was obtained from triplicate wells.

Compound | FACS-LDLR (% DMSO Cnt) (cell surface LDLR) | activity at 10 µM [1] | Dil-LDL uptake (FIG. 5A, in words) ([1]; 33.3 μM, HepG2 naïve cells)
CCCCCCCCCC(=O)N[C@H](C(=O)N[C@@H](Cc1ccccc1)C(=O)N[C@H](C)C(=O)N[C@@H](CCC(N)=O)C(O)C(F)(F)F)C(C)C (single isomer, unassigned) [Example 60] | 138 ± 8 % DMSO Cnt | 224 ± 43% | 
CC(C)[C@H](NC(=O)c1ccc(-c2ccccc2)cc1)C(=O)N[C@@H](Cc1ccccc1)C(=O)NC1(C(=O)N[C@@H](CCC(N)=O)C(O)C(F)(F)F)CCC1 (single isomer, unassigned) [Example 66] | 122 ± 11 % DMSO Cnt | 237 ± 59% | 
CC(C)[C@H](NC(=O)c1ccc(-c2ccccc2)cc1)C(=O)N[C@@H](Cc1ccccc1)C(=O)N[C@@H](C)C(=O)NC(CCC(N)=O)C(O)C(F)(F)F (stereo partly drawn) [Example 24, N-((2S)-1-(((2S)-1-(((2S)-1-((6-Amino-1,1,1-trifluoro-2-hydroxy-6-oxohexan-3-yl)amino)-1-oxopropan-2-yl)amino)-1-oxo-3-phenylpropan-2-yl)amino)-3-methyl-1-oxobutan-2-yl)-[1,1′-biphenyl]-4-carboxamide] | 116 ± 5 % DMSO Cnt | 224 ± 33% | increase in the Dil-LDL uptake
CC(C)[C@H](NC(=O)c1ccc(C2(C(F)(F)F)N=N2)cc1)C(=O)N[C@@H](Cc1ccccc1)C(=O)N[C@@H](C)C(=O)NC(CCC(N)=O)C(O)C(F)(F)F (stereo partly drawn) [Example 29, N-((2S)-1-(((2S)-1-(((2S)-1-((6-Amino-1,1,1-trifluoro-2-hydroxy-6-oxohexan-3-yl)amino)-1-oxopropan-2-yl)amino)-1-oxo-3-phenylpropan-2-yl)amino)-3-methyl-1-oxobutan-2-yl)-4-(3-(trifluoromethyl)-3H-diazirin-3-yl)benzamide] | 233 ± 50 % DMSO Cnt | 207 ± 21% | 
CC(C)[C@H](NC(=O)c1ccc(-c2ccc(F)cc2)cc1)C(=O)N[C@@H](Cc1ccccc1)C(=O)N[C@@H](C)C(=O)NC(CCC(N)=O)C(O)C(F)(F)F (stereo partly drawn) [Example 52, N-((2S)-1-(((2S)-1-(((2S)-1-((6-Amino-1,1,1-trifluoro-2-hydroxy-6-oxohexan-3-yl)amino)-1-oxopropan-2-yl)amino)-1-oxo-3-phenylpropan-2-yl)amino)-3-methyl-1-oxobutan-2-yl)-4′-fluoro-[1,1′-biphenyl]-4-carboxamide] | 138 ± 20 % DMSO Cnt | 254 ± 71% | 
CCCCCCCCCC(=O)N[C@H](C(=O)N[C@@H](Cc1ccccc1)C(=O)N[C@H](C(=O)NC(CCC(N)=O)C(O)C(F)(F)F)C(C)C)C(C)C (stereo partly drawn) [Example 58, N-((2S)-1-(((2S)-1-(((2S)-1-((6-amino-1,1,1-trifluoro-2-hydroxy-6-oxohexan-3-yl)amino)-3-methyl-1-oxobutan-2-yl)amino)-1-oxo-3-phenylpropan-2-yl)amino)-3-methyl-1-oxobutan-2-yl)decanamide] | 166 ± 28 % DMSO Cnt | 261 ± 48% | 
CCCCCCCCCC(=O)N[C@H](C(=O)N[C@@H](Cc1ccccc1)C(=O)N[C@@H](Cc1ccccc1)C(=O)NC(CCC(N)=O)C(O)C(F)(F)F)C(C)C (stereo partly drawn) [Example 59, N-((2S)-1-(((2S)-1-(((2S)-1-((6-Amino-1,1,1-trifluoro-2-hydroxy-6-oxohexan-3-yl)amino)-1-oxo-3-phenylpropan-2-yl)amino)-1-oxo-3-phenylpropan-2-yl)amino)-3-methyl-1-oxobutan-2-yl)decanamide] | 265 ± 35 % DMSO Cnt | 253 ± 75% | 
CC(C)[C@H](NC(=O)c1ccc(-c2ccccc2)cc1)C(=O)N[C@H](Cc1ccccc1)C(=O)N[C@@H](C)C(=O)NC(CCC(N)=O)C(O)C(F)(F)F (stereo partly drawn) [Example 70, N-((2S)-1-(((2R)-1-(((2S)-1-((6-Amino-1,1,1-trifluoro-2-hydroxy-6-oxohexan-3-yl)amino)-1-oxopropan-2-yl)amino)-1-oxo-3-phenylpropan-2-yl)amino)-3-methyl-1-oxobutan-2-yl)-[1,1′-biphenyl]-4-carboxamide] | 118 ± 18 % DMSO Cnt | 224 ± 47% | 
CSCC[C@H](NC(=O)c1ccc(-c2ccccc2)cc1)C(=O)N[C@@H](Cc1ccccc1)C(=O)N[C@@H](C)C(=O)NC(CCC(N)=O)C(O)C(F)(F)F (stereo partly drawn) [Example 75, N-((5S,8S,11S)-17-amino-8-benzyl-11-methyl-6,9,12,17-tetraoxo-14-(2,2,2-trifluoro-1-hydroxyethyl)-2-thia-7,10,13-triazaheptadecan-5-yl)-[1,1′-biphenyl]-4-carboxamide] | 174 ± 41 % DMSO Cnt | 172 ± 48% | 
